According to US12350256B2, “Histidine and/or histidine derivative for the treatment of inflammatory skin diseases” (Curapel (Scotland) Limited, priority 2008, dated 2025):

System: Adult patients with moderate to severe chronic atopic dermatitis
Assay: Randomised, double-blind, placebo-controlled study of oral L-histidine in atopic dermatitis (SCORAD, POEM, TEWL)
Assay type: in vivo, human
Experimental: A randomised, double-blind, placebo-controlled study was conducted as follows: Adult (i.e. greater than 18 years of age) patients with moderate to severe chronic atopic dermatitis were recruited to the study from patients and diagnosis of atopic dermatitis confirmed using the UK Working Party's Diagnostic criteria (see Williams et al, Br. J. Dermatol. 1994; 131:383-96). Exclusion criteria were: patients aged less than 18 years, pregnancy or lactation, liver disease, exposure to natural or artificial ultra-violet radiation, immunosuppression due to disease or medication and Chinese herbal medicine in the 3 months preceding the study. Patients were asked to cease potent topical steroid use during the study. Disease severity was quantified by a research nurse using the well established SCORAD system (see Schmitt et al, European Dermato-Epidemiology Network, J. Allergy Clin. Immunol., 2007; 120:1389-98) and self assessed by the patients using POEM (Patient-Oriented Eczema Measure; see […] et al, J. Arch. Dermatol. 2004; 140-1513-9). Skin barrier function was assessed using a Vapometer® which quantifies Trans Epidermal Water Loss (TEWL; see Fluhr et al, Exp. Dermatol., 2006; 15:483-92). Atopic dermatitis patients were randomised into each of 2 groups and after a 'washout' period of 2 weeks and received either 4.0 g of powder L-histidine or 4.0 g of placebo (the naturally occurring food sweetener, erythritol) powder daily for 4 weeks. The patients were instructed to dissolve either the L-histidine or placebo powder in fruit juice. Neither the patient nor the clinical staff was aware of the identity of treatments administered.

[1] = 4.0 g daily oral for 4 weeks, n=4

## N[C@@H](Cc1c[nH]cn1)C(=O)O [L-Histidine, 2-amino-3-(3H-imidazol-4-yl)propanoic acid]
[1]
  POEM % change after 4 wks: −25%
  SCORAD % change after 4 wks: −22%
  SCORAD after 4 wks: 25
  TEWL % change after 4 wks: −50%
4 weeks of 4.0 g daily
  reduction of clinician-scored disease activity (SCORAD): 22%
  reduction of patient-scored disease activity: 25%
  reduction of transepidermal water loss (TEWL): 50%
Vapometer, 4.0 g daily oral for 4 weeks, n=4
  TEWL after 4 wks: 8
Baseline before treatment, 4.0 g daily oral group, n=4
  SCORAD before: 37
Baseline before treatment, Vapometer, 4.0 g daily oral group, n=4
  TEWL before: 16
Baseline before treatment, patient self-assessed, 4.0 g daily oral group, n=4
  POEM before: 20
Patient self-assessed, 4.0 g daily oral for 4 weeks, n=4
  POEM after 4 wks: 15
